Test results from PMC6974622, “DeepMalaria: Artificial Intelligence Driven Discovery of Potent Antiplasmodials” (Frontiers in Pharmacology, 2020).
“Also recorded” adds a separate entry of the source. Read-outs that look alike come from different tables or passages of the source.

Tests used:
[1] = system: multidrug resistant P. falciparum strain Dd2; assay: SYBR Green I Plasmodium growth inhibition assay (fixed concentration screen and EC50); type: cell-based, Plasmodium falciparum; conditions: for DD2: test dataset (macrocyclic library), class label, 1 µM; for inhibition at 1 µM: Pf Dd2, 1 µM, 72 h, read-out: Inhibition One-point (%)
Method: P. falciparum cultures were maintained under standard culture conditions in RPMI 1640 medium supplemented with 25 mM HEPES, pH 7.4, 26 mM NaHCO3, 2% dextrose, 15 mg/L hypoxanthine, 25 mg/L gentamycin, and 0.5% Albumax II maintained at 37°C in 5% CO2 and 95% air. Initially, a fixed concentration phenotypic screening was performed against multidrug resistant P. falciparum strain Dd2 (resistant to chloroquine, pyrimethamine, and mefloquine) using a SYBR Green I assay ([Johnson et al., 2007]; [Vossen et al., 2010]). An EVO-150 robotic liquid handler (Tecan, Morrisville, NC) was used to aliquot compounds at a final concentration of 1 µM followed by addition of culture to 96-well plates (Greiner, Monroe, NC) at 1% parasitemia, 2% hematocrit. Plates were incubated for 72 h at 37°C in a humidified atmosphere 5% CO2/95% air prior to freezing. Plates were subsequently thawed and 1X SYBR Green I was added with lysis buffer (20 mM Tris-HCl, 0.08% saponin, 5 mM EDTA, 0.8% Triton X-100). After incubation at room temperature in dark for 1 h, the fluorescent emission was measured at excition and emission wavelengths of 485 nm and 530 nm, respectively, using a BioTek Synergy neo2 (Winooski, VT) plate reader. […] Curve fitting was performed using GraphPad Prism and EC50 value was determined for each compound.

Pf (DD2) = assay: Validation dataset: previously performed HTS at University of Central Florida, Chakrabarti Laboratory; type: cell-based, Plasmodium falciparum; conditions: class label
Method: The validation dataset consists of the results from previously performed HTS in University of Central Florida at the Chakrabarti Laboratory, consisting of natural-products, kinase inhibitors from commercial vendors Asinex (Winston-Salem, NC)and ChemDiv (San Diego, CA) libraries. This dataset contains 4,497 molecules and their inhibition property. […] Using this external validation dataset, the realistic capabilities of the model are evaluated in the validation process. The raw data supporting the conclusions of this manuscript will be made available by the authors, without any restriction, to any qualified researcher (Supplementary Material 4).

[2] = system: human hepatoma cell line HepG2; assay: MTS based cytotoxicity assay (counter-screen for selectivity); type: cell-based; conditions: 48 h
Method: Selectivity was determined by counter-screening against human hepatoma cell line HepG2 in a MTS (3-(4,5-Dimethylthiazol-2-yl)-5-(3-carboxymethoxyphenyl)-2-(4-sulfophenyl)-2H-tetrazolium) based cytotoxicity assay (CellTiter 96® Aqueous One, Promega, Madison, WI) ([Riss et al., 2004]). Briefly, microtiter plates were seeded with 1,500 cells per well in a 384 well plate and incubated for 24 h at 37°C in 5% CO2/95% air atmosphere. The next day, compounds were added at seven different serially diluted concentrations starting at 25 µM d incubated for additional 48 h at stated conditions. MTS solution was next added to each well, incubated for additional 3 h at 37°C, and absorbance was read at 490 nm using BioTek Synergy neo 2 plate reader. Untreated cells served as control. Curve fitting was performed using GraphPad Prism and EC50 value was determined.

P. falciparum Dd2 = assay: Stage-specific activity assay (Giemsa smears, YOYO-1 flow cytometry); type: cell-based, Plasmodium falciparum; conditions: synchronized Dd2, compound at 3X EC50 added at 6, 18, 30, 42 hpi
Method: P. falciparum Dd2 cell line was synchronized using a combination of 5% sorbitol and magnetic column separation as described ([Roberts et al., 2016]). Cultures at 2% parasitemia and 2% hematocrit were added to microtiter plate wells and measurements began 6 h post-invasion (6 hpi). Hit compounds were added at 3X EC50 concentration at specified time points. Controls are DHA (3X EC50) and untreated cultures. Giemsa-stained thin smears were made for each time point and an aliquot of the culture was fixed for flow cytometric analysis using 0.04% glutaraldehyde in PBS. After fixing and aspirating, cells were permeabilized with 0.25% Triton-100 followed by treatment with RNase (0.05 mg/ml) for 3 h. Next, YOYO 1 (10.24 µM) fluorescent dye was added and samples were analyzed ([Bouillon et al., 2013]) using Beckman Coulter (Indianapolis, IN) CytoFlex S flowcytometer.

Pf Dd2 = assay: Rate of killing determination; type: cell-based, Plasmodium falciparum; conditions: synchronized Dd2, exposure 6 or 12 h, parasitemia tracked for 6 days
Method: Pf Dd2 culture was synchronized as described ([Roberts et al., 2016]), plated into 24 well plates at 2% parasitemia and 2% hematocrit at 6 hpi. […] Each well was exposed to the inhibitor for either 6 or 12 h using dihydroartemisinin (DHA) (25 µM) and untreated culture as controls. After washing the compounds off, the media was changed twice a day. The parasitemia was tracked for 6 days after addition of compounds. Thin smears were stained with Giemsa, and parasitemia was counted using microscope.

3D7 = system: 3D7; set-up: unit not given here; conditions: cited from earlier work
[3] = repurposing dataset, 179 approved drugs, ref https://www.nature.com/articles/nchembio806

Compound: CC(=O)N1CCCN(Cc2ccccc2)CCN(C(=O)c2ccccc2F)Cc2cc(F)c(F)cc21
- DD2 [1]: 0 (zero if otherwise)

Compound: COc1ccc(-c2nc3n(n2)C(c2cccnc2)C2=C(CC(C)(C)CC2=O)N3)cc1 (stereo not drawn)
- DD2 (Pf (DD2)): 0 (zero if otherwise)

Compound: C=CCN1C(=O)COc2ccc(NC(=O)c3oc4cc(C)ccc4c3C)cc21
- DD2 (Pf (DD2)): 0 (zero if otherwise)

Compound: C=CCOC(=O)C1=C(C)NC(=S)NC1c1ccc(C(C)(C)C)cc1 (stereo not drawn)
- DD2 (Pf (DD2)): 0 (zero if otherwise)

Compound: C[C@H]1C(=O)NCCOc2ccccc2C(=O)N[C@H](C(=O)NCCCc2ccccc2)CCC(=O)N1C
- DD2 [1]: 0 (zero if otherwise)

Compound: Cc1noc(C2CCCN2C(=O)CN2CCC3(CCCCc4ccccc4OCCCNC3=O)CC2)n1 (stereo not drawn)
- DD2 [1]: 0 (zero if otherwise)

Compound: Cn1cnnc1C1CCCCN1C(=O)CN1CCC2(CCCCc3ccccc3OCCCNC2=O)CC1 (stereo not drawn)
- DD2 [1]: 0 (zero if otherwise)

Compound: Cc1cc(C)n(Cc2c(C(=O)N3CCC4(CCCCOC[C@@H]5CCCN5C(=O)c5cccc(c5)OC4)CC3)noc2C)n1 [DC-5921, CC1=NN(CC2=C(C)ON=C2C(=O)N2CCC3(CC2)CCCCOC[C@@H]2CCCN2C(=O)C2=CC(OC3)=CC=C2)C(C)=C1]
- EC50 [2]: > 25 µM
- Stage specific activity (P. falciparum Dd2): active in early stages, late Troph and early schizont; also recorded: inhibit the early stages
- inhibition at 1 µM ([1]; Plasmodium falciparum): 90%
- EC50 ([1]; Plasmodium falciparum, Pf Dd2, 72 h, spread given in nM): 0.9 nM

Compound: CCc1nc2ccccc2c(C(=O)N2CCC3(CCCCOCCNC(=O)c4ccccc4OC3)CC2)c1C [DC-5931, CCC1=NC2=C(C=CC=C2)C(C(=O)N2CCC3(CC2)CCCCOCCNC(=O)C2=C(OC3)C=CC=C2)=C1C]
- EC50 [2]: > 25 µM
- Stage specific activity (P. falciparum Dd2): mostly active in early stages; also recorded: inhibit the early stages
- inhibition at 1 µM ([1]; Plasmodium falciparum): 80%

Compound: CN1CCOc2ccccc2CCCCCC2(CCN(C(=O)[C@@H](N)c3ccccc3)CC2)C1=O [DC-9235, CN1CCOC2=C(CCCCCC3(CCN(CC3)C(=O)[C@@H](N)C3=CC=CC=C3)C1=O)C=CC=C2]
- EC50 [2]: > 25 µM
- inhibition at 1 µM ([1]; Plasmodium falciparum): 92%

Compound: CC(C)C[C@@H](N)C(=O)N1CCC2(CCCCCc3ccccc3OCCN(C)C2=O)CC1 [DC-9236, CC(C)C[C@@H](N)C(=O)N1CCC2(CC1)CCCCCC1=C(OCCN(C)C2=O)C=CC=C1]
- EC50 [2]: 6.5 µM
- Stage specific activity (P. falciparum Dd2): active in late Troph and early Schizont; also recorded: inhibits primarily the mature schizonts
- inhibition at 1 µM ([1]; Plasmodium falciparum): 98%
- Rate of killing (Pf Dd2): higher elimination in the second life cycle; also recorded: inhibition in the second developmental cycle of Pf causing delayed death

Compound: CCC1C2=NC(Cc3ccccc3)=C(O2)N(Cc2ccccc2)Cc2cn(nn2)CCCCN1Cc1ccccc1OCCN(C)C (stereo not drawn) [DC-9237, CCC1N(CC2=CC=CC=C2OCCN(C)C)CCCCN2C=C(CN(CC3=CC=CC=C3)C3=C(CC4=CC=CC=C4)N=C1O3)N=N2]
- EC50 [2]: 17 µM
- Stage specific activity (P. falciparum Dd2): inhibits all asexual stages of Plasmodium falciparum; also recorded: inhibits all asexual blood stages of Dd2 including the early ring stage
- inhibition at 1 µM ([1]; Plasmodium falciparum): 95%
- Rate of killing (Pf Dd2): fast-acting; also recorded: inhibited growth at all asexual stages after 6 h of exposure and parasite population did not resume growth even after 6 days

Compound: CN1CCOc2ccccc2CCCCCC2(CCN(C(=O)[C@H](N)c3ccccc3)CC2)C1=O [DC-9239, CN1CCOC2=C(CCCCCC3(CCN(CC3)C(=O)[C@H](N)C3=CC=CC=C3)C1=O)C=CC=C2]
- EC50 [2]: 24.2 µM
- inhibition at 1 µM ([1]; Plasmodium falciparum): 79%

Compound: O=C1NC(=S)S/C1=C\c1ccc(O)cc1 [O=C1NC(=S)S/C1=C\c1ccc(O)cc1]
- DD2 (Pf (DD2)): 0 (zero if otherwise)

Compound: CCC(C)C(C(=O)OCC[N+](C)(CC)CC)c1ccccc1 (stereo not drawn) [Valethamate]
- 3D7 (3D7; [3]): 79.9

Compound: COc1ccc(CCN(C)CCCC(C#N)(c2ccc(OC)c(OC)c2)C(C)C)cc1OC (stereo not drawn) [Verapamil]
- 3D7 (3D7; [3]): 98

Compound: C=Cc1c(C)c2cc3nc(cc4[nH]c(cc5nc(cc1[nH]2)C(C)=C5CCC(=O)O)c(CCC(=O)OC)c4C)[C@@]1(C)C3=CC=C(C(=O)OC)[C@H]1C(=O)OC [Verteporfin]
- 3D7 (3D7; [3]): 95.4

Compound: CC[C@]1(O)C[C@@H]2CN(CCc3c([nH]c4ccccc34)[C@@](C(=O)OC)(c3cc4c(cc3OC)N(C)[C@H]3[C@@](O)(C(=O)OC)[C@H](OC(C)=O)[C@]5(CC)C=CCN6CC[C@]43[C@@H]65)C2)C1 [Vinblastine]
- 3D7 (3D7; [3]): 66.7

Compound: CC[C@]1(O)C[C@H]2CN(CCc3c([nH]c4ccccc34)[C@@](C(=O)OC)(c3cc4c(cc3OC)N(C=O)[C@H]3[C@@](O)(C(=O)OC)[C@H](OC(C)=O)[C@]5(CC)C=CCN6CC[C@]43[C@@H]65)C2)C1 [Vincristine]
- 3D7 (3D7; [3]): 69.5

Compound: CC[C@]1(O)C[C@@H]2CN(CCc3c([nH]c4ccccc34)[C@@](C(=O)OC)(c3cc4c(cc3OC)N(C)[C@H]3[C@@](O)(C(N)=O)[C@H](O)[C@]5(CC)C=CCN6CC[C@]43[C@@H]65)C2)C1 [Vindesine]
- 3D7 (3D7): 81.9

Compound: CCC1=C[C@@H]2CN(C1)Cc1c([nH]c3ccccc13)[C@@](C(=O)OC)(c1cc3c(cc1OC)N(C)[C@H]1[C@@](O)(C(=O)OC)[C@H](OC(C)=O)[C@]4(CC)C=CCN5CC[C@]31[C@@H]54)C2 [Vinorelbine]
- 3D7 (3D7; [3]): 97.7

Compound: Atovaquone
- 3D7 (3D7; [3]): 97

Compound: Brilliant green
- 3D7 (3D7; [3]): 93.5

Compound: Carboplatin
- 3D7 (3D7; [3]): 76.4

Compound: Corticotropin A
- 3D7 (3D7; [3]): 86.4

Compound: Doxycycline
- 3D7 (3D7; [3]): 59.7

Compound: Gramicidin A
- 3D7 (3D7; [3]): 98.5

Compound: Heparin
- 3D7 (3D7; [3]): 79.9

Compound: Meclocycline
- 3D7 (3D7; [3]): 68.7

Compound: Phenylmercuric acetate
- 3D7 (3D7): 97.7

Compound: Plicamycin
- 3D7 (3D7; [3]): 98.2

Compound: Tolonium chloride
- 3D7 (3D7): 99.5
